Laboratory results reported in patent publication US10590115B2, “Tetrahydroquinazoline derivatives useful as anticancer agents” (PFIZER INC., priority 2018, dated 2020).

What was measured:
[1] = molecular target: T1, KRAS G12C in MiaPaCa2 cells (Homo sapiens, UniProt P01116, G12C); assay: MiaPaCa2 Cell Activity Assay (Raf-1 RBD capture of active Ras, MSD); format: cell-based; details: MIAPaCa-2 cells, 6 hours treatment; assay limit is 30.0 μM
T1 construct: endogenous in cells; host or cells: MiaPaCa2
Experimental: MiaPaCa2 Cell Activity Assay
(§1) Compounds presented in the present invention lead to the accumulation of the GDP bound Ras upon treatment of human cancer cell line.
(§2) The accumulation of the GDP-bound KRAS G12C in cellular environment was measured based on the principle that KRAS G12C only binds to its downstream kinase; Raf-1 (MAP Kinase Kinase Kinase), when in its active-GTP bound state. In this state, Ras binded to a domain of Raf-1 kinase referred to as the Ras Binding Domain (RBD).
(§3) MiaPaCa2 cells were grown in DMEM medium (Gibco 11995) supplemented with 10% fetal bovine serum and 1% penicillin/streptomycin. Cells were seeded in 96-well tissue culture plates at a density of 40,000 cells/well and allowed to attach for 16-24 hours. Test compounds were prepared as a 10 mM stock in DMSO and serially diluted in 100% DMSO using a 3-fold dilution scheme. An intermediate 5× concentrated plate in complete growth medium was made and 25 μl/well was added to the 100 μl of cells for a final concentration of 0.1% DMSO. Each concentration of exemplary compound was tested in duplicate. The negative control wells were cells with control inhibitor at 10 μM, and the positive control wells were cells without drugs, DMSO only. Plates were incubated for 6 hours at 37° C., 5% CO2. Following treatment, cells were washed 3× with ice-cold PBS and 100 μl/well ice-cold 1× Assay/Lysis. Buffer with protease inhibitors was added (25 mM HEPES, pH 7.5, 150 mM NaCl, 1% NP-40, 10 mM MgCl2, 1 mM EDTA, 2% Glycerol). Following lysis samples were frozen at −80° C.
(§4) Raf-1 RBD (LJIC-1988A1) was diluted to 100 ng/well in PBS and 5 μl/well was spot coated onto MSD high bind SECTOR plates (L15XB). Plates were incubated at room temperature for 1 hour on an orbital shaker. Plates were washed with PBS/0.05% Tween-20 and 50 μl/well of thawed lysate samples were added, followed by 50 μl of 1% MSD Blocker A in PBS/0.05% Tween-20 (R93BA). Plates were incubated for 1 hour on an orbital shaker and washed with PBS/0.05% Tween-20. 25 μl/well of Anti-pan-Ras Antibody (Cell Biolabs 244003) diluted 1:3000 was added in 1% MSD Blocker A solution and plates were incubated for 1 hour on an orbital shaker and washed with PBS/0.05% Tween-20. SULFO-TAG goat anti-mouse secondary antibody (MSD R32AC) was diluted 1:500 in MSD Blocker A solution and added at 25 μL/well. Plates were incubated for 1 hour on an orbital shaker and washed with PBS/0.05% Tween-20. 150 μl/well of Read Buffer T (MSD R92TC) diluted 1:3 in H2O was added and plates were read on a Meso Scale Discovery Sector Imager S600.
(§5) KRAS signal was normalized to maximum inhibition and DMSO control values, and IC50 values were generated using a 4 parameter fit of the dose response curve. The decrease in IC50 reflects that the exemplary compound lead to a higher level of accumulation of GDP-bound KRAS G12C than another exemplary compounds at specific timepoint of treatment of cancer cell line.

KRAS G12C in H358 cells = molecular target: T2, KRAS G12C in H358 cells (Homo sapiens, UniProt P01116, G12C); assay: H358 Cell Activity Assay (Raf-1 RBD capture of active Ras, MSD); format: cell-based; details: 6 hours treatment
T2 construct: endogenous in cells; host or cells: H358
Experimental: as §1, §2
as §3, with “H358” for “MiaPaCa2”, “RPMI 1640” for “DMEM”, “11875)” for “11995)”
as §4, §5

[2] = molecular target: T3, GDP-loaded kRas (1-169) G12C, C51S, C80L, C118S (Homo sapiens, UniProt P01116, C118S/C51S/C80L/G12C); assay: Mass Spectrometry Reactivity Assay (MSRA), covalent adduct with kRas G12C; format: binding; details: 0.5 h at room temperature; 5 μM KRas protein; typical final concentration of the compounds 10 μM
T3 construct: GDP-loaded kRas (1-169) G12C, C51S, C80L, C118S
Experimental: Mass Spectrometry Reactivity Assay (MSRA)
Compounds presented in the present invention covalently bind to kRas G12C using MSRA to detect a covalent adduct of the exemplary compound and kRas G12C. GDP-loaded kRas (1-169) G12C, C51S, C80L, C118S were diluted in the protein assay buffer 25 mM Hepes pH7.5, 200 mM NaCl, 5% glycerol to concentration of 5 μM and 20 μl of protein was transferred into 96-well plate. […] See K-Ras(G12C) inhibitors allosterically control GTP affinity and effector interactions; Ostrem J M, Peters U, Sos M L, Wells J A, Shokat K M; Nature. 2013, Nov. 28; 503(7477):548-51.
Exemplary compounds dissolved in DMSO were diluted 100-fold into solution containing 20 μl of 5 μM KRas protein in the 96-well plate to initiate the reaction. Mosquito (TPP Lab tech) liquid handling robot was used to add compounds to protein solution. Typical final concentration of the compounds was 10 μM. The plates were placed on a shaker for 1 min at RT, sealed and incubated at room temperature for specified time period. 5 μl of reaction mix was added to 10 μl of 0.2% formic acid stop solution and mixed well. Typical end points were 30, 120, 600 and 1440 min.
Data were collected using Waters Acquity H-class UPLC system/Xevo G2-XS TOF mass spectrometer. The protein was injected in their liquid phase onto a Bruker Microtrap protein column TR1/15109/03. The following buffers were used to set LC gradient: Buffer A: 0.2% formic acid H20; B: 0.2% formic acid CAN. The protein was eluted from the column using the following LC Gradient: 0-0.4 min, 10% B to 30% B; 0.4 min-2.4 min, to 90% B, 2.5 min, 10% B, 3 min, 10% B. Initial data analysis was performed using MaxEnt software right after data acquisition.
The standard auto processing function was used to define percentage of unmodified and modified kRas protein using MexEnt software right after data acquisition. The highest peak was defined as 100% while smaller peak as assigned the number defined by autoprocessing function. The percent of modification corresponding to modified with exemplary compound and unmodified KRas GDP-loaded kRas (1-169) G12C, C51S, C80L, C118S were exported to Xcel data analysis software.
The percent of modified protein at the defined concentration of exemplary compound was calculated using the following formula: % mod=Num of modified peak/Sum of modified+unmodified.

In the case of `C=CC(=O)N1CCN(c2nc(OCCCN(C)C)nc3c2C[C@@H](C)[C@H](c2c(Cl)c(C)cc4[nH]ncc24)C3)CC1` (relative stereo) [Example C7, 1-(4-{(6R,7R)-rel-7-(5-chloro-6-methyl-1H-indazol-4-yl)-2-[3-(dimethylamino)propoxy]-6-methyl-5,6,7,8-tetrahydroquinazolin-4-yl}piperazin-1-yl)prop-2-en-1-one], the IC50 [1] is reported as 0.088 µM, the IC50 (KRAS G12C in H358 cells) is reported as 0.106 µM and the “% Modification (0.5 h)” value [2] is reported as 73%.
`C=CC(=O)N1CCN(c2nc(OCCN(C)C)nc3c2C[C@@H](C)[C@H](c2c(Cl)c(C)cc4[nH]ncc24)C3)CC1` (relative stereo) [Example C8, 1-(4-{(6R,7R)-rel-7-(5-chloro-6-methyl-1H-indazol-4-yl)-2-[2-(dimethylamino)ethoxy]-6-methyl-5,6,7,8-tetrahydroquinazolin-4-yl}piperazin-1-yl)prop-2-en-1-one] was tested, and the IC50 [1] was 0.14 µM, the IC50 (KRAS G12C in H358 cells) was 0.116 µM and the “% Modification (0.5 h)” value [2] was 65%.
With `C=CC(=O)N1CCN(c2nc(OCCCN(C)C)nc3c2C[C@@H](C)[C@H](c2c(C)ccc4[nH]ncc24)C3)CC1` [Example C5, 1-{4-[(6R,7R)-2-[3-(dimethylamino)propoxy]-6-methyl-7-(5-methyl-1H-indazol-4-yl)-5,6,7,8-tetrahydroquinazolin-4-yl]piperazin-1-yl}prop-2-en-1-one] the IC50 [1] was 0.214 µM, the IC50 (KRAS G12C in H358 cells) was 0.468 µM and the “% Modification (0.5 h)” value [2] was 74%.
`C=CC(=O)N1CCN(c2ncnc3c2C[C@@H](CO)[C@H](c2c(C)ccc4[nH]ncc24)C3)CC1` (relative stereo) [Example A7, 1-{4-[(6R,7R)-rel-6-(hydroxymethyl)-7-(5-methyl-1H-indazol-4-yl)-5,6,7,8-tetrahydroquinazolin-4-yl]piperazin-1-yl}prop-2-en-1-one] was tested, and the IC50 [1] was 29.3 µM and the “% Modification (0.5 h)” value [2] was 11%.
In the case of `C=CC(=O)N1CCN(c2nc(OCCCO)nc3c2CCC(c2c(C)ccc4[nH]ncc24)C3)CC1` (stereo not drawn) [Example C4, 1-{4-[2-(3-hydroxpropoxy)-7-(5-methyl-1H-indazol-4-yl)-5,6,7,8-tetrahydroquinazolin-4-yl]piperazin-1-yl}prop-2-en-1-one], the IC50 [1] is reported as 3.61 µM and the “% Modification (0.5 h)” value [2] is reported as 34%.
`C=CC(=O)N1CCN(c2nc(N3CC(N(C)C)C3)nc3c2C[C@@H](C)[C@H](c2c(C)ccc4[nH]ncc24)C3)CC1` (single isomer, unassigned) [Example F2] was tested, and the IC50 [1] was 0.285 µM, the IC50 (KRAS G12C in H358 cells) was 0.277 µM and the “% Modification (0.5 h)” value [2] was 79%.
With `C=CC(=O)N1CCN(c2nc(N3CC(N(C)C)C3)nc3c2C[C@@H](C)[C@H](c2c(Cl)c(C)cc4[nH]ncc24)C3)C[C@H]1C` [Example F12, 1-[(2R)-4-{(6R,7R)-7-(5-chloro-6-methyl-1H-indazol-4-yl)-2-[3-(dimethylamino)azetidin-1-yl]-6-methyl-5,6,7,8-tetrahydroquinazolin-4-yl}-2-methylpiperazin-1-yl]prop-2-en-1-one] the IC50 [1] was 0.06 µM, the IC50 (KRAS G12C in H358 cells) was 0.064 µM and the “% Modification (0.5 h)” value [2] was 84%.
For `C=CC(=O)N1CCN(c2nc(OCCOC)nc3c2CCC(c2c(C)ccc4[nH]ncc24)C3)CC1` (stereo not drawn) [Example C1, 1-{4-[2-(2-methoxyethoxy)-7-(5-methyl-1H-indazol-4-yl)-5,6,7,8-tetrahydroquinazolin-4-yl]piperazin-1-yl}prop-2-en-1-one], the IC50 [1] was 9.84 µM and the “% Modification (0.5 h)” value [2] was 19%.
With `C=CC(=O)N1CCN(c2nc(N3CC(N(C)C)C3)nc3c2C[C@@H](C)[C@H](c2c(Cl)ccc4[nH]ncc24)C3)CC1` (single isomer, unassigned) [Example F10] the IC50 [1] was 0.169 µM and the IC50 (KRAS G12C in H358 cells) was 0.395 µM.
With `C=CC(=O)N1CCN(c2ncnc3c2C[C@@H](C)[C@H](c2c(C)ccc4[nH]ncc24)C3)CC1` (relative stereo) [Example A4, 1-{4-[(6R,7R)-rel-6-methyl-7-(5-methyl-1H-indazol-4-yl)-5,6,7,8-tetrahydroquinazolin-4-yl]piperazin-1-yl}prop-2-en-1-one] the IC50 [1] was 1.3 µM and the “% Modification (0.5 h)” value [2] was 53%.
`C=CC(=O)N1CCN(c2ncnc3c2CC[C@H](c2c(C)ccc4[nH]ncc24)C3)CC1` (single isomer, unassigned) [Example A3] was tested, and the IC50 [1] was 4.15 µM and the “% Modification (0.5 h)” value [2] was 39%.
With `C=CC(=O)N1CC2(C1)CN(c1ncnc3c1CCC(c1c(C)ccc4[nH]ncc14)C3)C2` (stereo not drawn) [Example B1, 1-{6-[7-(5-methyl-1H-indazol-4-yl)-5,6,7,8-tetrahydroquinazolin-4-yl]-2,6-diazaspiro[3.3]hept-2-yl}prop-2-en-1-one] the IC50 [1] was 18.7 µM and the “% Modification (0.5 h)” value [2] was 9%.
With `C=CC(=O)N1CCN(c2nc(N3CCN(C)CC3)nc3c2C[C@@H](C)[C@H](c2c(C)ccc4[nH]ncc24)C3)CC1` (relative stereo) [Example F4] the IC50 [1] was 4.29 µM and the “% Modification (0.5 h)” value [2] was 22%.
With `C=CC(=O)N1CCN(c2nc(OCCO)nc3c2CCC(c2c(C)ccc4[nH]ncc24)C3)CC1` (stereo not drawn) [Example C3, 1-{4-[2-(2-hydroxyethoxy)-7-(5-methyl-1H-indazol-4-yl)-5,6,7,8-tetrahydroquinazolin-4-yl]piperazin-1-yl}prop-2-en-1-one] the IC50 [1] was 12 µM and the “% Modification (0.5 h)” value [2] was 15%.
